Consider nine cell lines from the supplement of paper PMC10307832.

What all share (assay): relative viability (nuclei count vs DMSO), 5 days (fraction); higher = more cells survive
Compound in the assay “KIN001-266 + Dasatinib”: CCN1CCC(CC1)N2C=C(N=N2)CNC3=CC4=C(C(=CN=C4C(=C3)Cl)C#N)NC5=CC(=C(C=C5)F)Cl [KIN001-266] + Cc1nc(Nc2ncc(C(=O)Nc3c(C)cccc3Cl)s2)cc(N2CCN(CCO)CC2)n1 [Dasatinib] (partner 0.075 µM)
In a few lines:
(§1)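 For relative viability, nuclei counts in treated wells were divided by those in vehicle wells. Lung cancer cell lines had been pin-tool dosed in 1536-well plates the day after seeding and cultured for 5 days, then fixed and stained in one step (final 0.05% Triton X-100, 1% formaldehyde, 1 ug/ml Hoechst) and imaged at 4×. Doses were one drug alone or a fixed anchor-drug dose plus five library-drug doses (not always all listed) in √10 steps, and values are duplicate-plate medians.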

Compound in the assay “KIN001-266 + Navitoclax”: CCN1CCC(CC1)N2C=C(N=N2)CNC3=CC4=C(C(=CN=C4C(=C3)Cl)C#N)NC5=CC(=C(C=C5)F)Cl [KIN001-266] + CC1(C)CCC(c2ccc(Cl)cc2)=C(CN2CCN(c3ccc(C(=O)NS(=O)(=O)c4ccc(N[C@H](CCN5CCOCC5)CSc5ccccc5)c(S(=O)(=O)C(F)(F)F)c4)cc3)CC2)C1 [Navitoclax] (partner 0.5 µM)
Put shortly:
as §1

Compound in the assay “KIN001-266 + Vorinostat”: CCN1CCC(CC1)N2C=C(N=N2)CNC3=CC4=C(C(=CN=C4C(=C3)Cl)C#N)NC5=CC(=C(C=C5)F)Cl [KIN001-266] + O=C(CCCCCCC(=O)Nc1ccccc1)NO [Vorinostat] (partner 1 µM)
Put shortly:
as §1

Compound in the assay “KIN001-266 + Crizotinib”: CCN1CCC(CC1)N2C=C(N=N2)CNC3=CC4=C(C(=CN=C4C(=C3)Cl)C#N)NC5=CC(=C(C=C5)F)Cl [KIN001-266] + C[C@@H](Oc1cc(-c2cnn(C3CCNCC3)c2)cnc1N)c1c(Cl)ccc(F)c1Cl [Crizotinib] (partner 1 µM)
In a few lines: as §1

In the case of H3255, the relative viability with KIN001-266 + Dasatinib (first compound 0.08 µM) was 0.359; with KIN001-266 + Dasatinib (first compound 0.253 µM) it was 0.334; in the assay with KIN001-266 + Dasatinib (first compound 0.8 µM), 0.288; in the assay with KIN001-266 + Dasatinib (first compound 2.53 µM), 0.404; in the assay with KIN001-266 + Dasatinib (first compound 8 µM), 0.346; in the assay with KIN001-266 + Navitoclax (first compound 0.08 µM) it was 0.689. The relative viability with KIN001-266 + Navitoclax (first compound 0.253 µM) was determined as 0.566; in the assay with KIN001-266 + Navitoclax (first compound 0.8 µM) it was 0.494; with KIN001-266 + Navitoclax (first compound 2.53 µM), 0.482; with KIN001-266 + Navitoclax (first compound 8 µM), 0.615; in the assay with KIN001-266 + Vorinostat (first compound 0.08 µM), 0.882; with KIN001-266 + Vorinostat (first compound 0.253 µM), 0.839. Further, the relative viability with KIN001-266 + Vorinostat (first compound 0.8 µM) amounted to 0.792; in the assay with KIN001-266 + Vorinostat (first compound 2.53 µM), 0.721; with KIN001-266 + Vorinostat (first compound 8 µM) it was 0.836; in the assay with KIN001-266 + Crizotinib (first compound 0.08 µM) it was 0.883; in the assay with KIN001-266 + Crizotinib (first compound 0.253 µM), 0.874; with KIN001-266 + Crizotinib (first compound 0.8 µM), 0.777. In addition, the relative viability with KIN001-266 + Crizotinib (first compound 2.53 µM) is 0.811; with KIN001-266 + Crizotinib (first compound 8 µM), 0.71.
Turning to EPLC-272H, the relative viability with KIN001-266 + Dasatinib (first compound 0.08 µM) was determined as 0.467; in the assay with KIN001-266 + Dasatinib (first compound 0.253 µM), 0.324; in the assay with KIN001-266 + Dasatinib (first compound 0.8 µM), 0.333; with KIN001-266 + Dasatinib (first compound 2.53 µM) it was 0.421; in the assay with KIN001-266 + Dasatinib (first compound 8 µM), 0.234; with KIN001-266 + Navitoclax (first compound 0.08 µM), 1.16. Also, the relative viability with KIN001-266 + Navitoclax (first compound 0.253 µM) came to 1.42; with KIN001-266 + Navitoclax (first compound 0.8 µM), 0.966; with KIN001-266 + Navitoclax (first compound 2.53 µM), 1.11; in the assay with KIN001-266 + Navitoclax (first compound 8 µM), 0.763; in the assay with KIN001-266 + Vorinostat (first compound 0.08 µM), 0.417; in the assay with KIN001-266 + Vorinostat (first compound 0.253 µM), 0.662. The relative viability in the assay with KIN001-266 + Vorinostat (first compound 0.8 µM) worked out at 0.621; with KIN001-266 + Vorinostat (first compound 2.53 µM), 0.429; with KIN001-266 + Vorinostat (first compound 8 µM), 0.384; in the assay with KIN001-266 + Crizotinib (first compound 0.08 µM), 0.939; in the assay with KIN001-266 + Crizotinib (first compound 0.253 µM) it was 0.862; in the assay with KIN001-266 + Crizotinib (first compound 0.8 µM) it was 0.752. Further, the relative viability in the assay with KIN001-266 + Crizotinib (first compound 2.53 µM) stood at 0.943; in the assay with KIN001-266 + Crizotinib (first compound 8 µM), 0.656.
Regarding PC-3 [JPC-3], the relative viability with KIN001-266 + Dasatinib (first compound 0.08 µM) was found to be 0.982; in the assay with KIN001-266 + Dasatinib (first compound 0.253 µM), 1.01; in the assay with KIN001-266 + Dasatinib (first compound 0.8 µM) it was 0.912; in the assay with KIN001-266 + Dasatinib (first compound 2.53 µM), 1.01; in the assay with KIN001-266 + Dasatinib (first compound 8 µM), 0.847; with KIN001-266 + Navitoclax (first compound 0.08 µM), 0.813. For the same cell line, the relative viability stood at 0.869 in the assay with KIN001-266 + Navitoclax (first compound 0.253 µM); 0.759 with KIN001-266 + Navitoclax (first compound 0.8 µM); 0.738 in the assay with KIN001-266 + Navitoclax (first compound 2.53 µM); 0.803 in the assay with KIN001-266 + Navitoclax (first compound 8 µM); 0.856 in the assay with KIN001-266 + Vorinostat (first compound 0.08 µM); 0.887 with KIN001-266 + Vorinostat (first compound 0.253 µM). In addition, the relative viability in the assay with KIN001-266 + Vorinostat (first compound 0.8 µM) stood at 0.801; with KIN001-266 + Vorinostat (first compound 2.53 µM) it was 0.987; with KIN001-266 + Vorinostat (first compound 8 µM) it was 0.847; with KIN001-266 + Crizotinib (first compound 0.08 µM), 0.986; with KIN001-266 + Crizotinib (first compound 0.253 µM) it was 0.911; with KIN001-266 + Crizotinib (first compound 0.8 µM) it was 0.872. For the same cell line, the relative viability was determined as 0.952 with KIN001-266 + Crizotinib (first compound 2.53 µM) and 0.896 with KIN001-266 + Crizotinib (first compound 8 µM).
NCI-H1793: the relative viability was 0.332 in the assay with KIN001-266 + Dasatinib (first compound 0.08 µM); 0.389 in the assay with KIN001-266 + Dasatinib (first compound 0.253 µM); 0.391 with KIN001-266 + Dasatinib (first compound 0.8 µM); 0.329 with KIN001-266 + Dasatinib (first compound 2.53 µM); 0.369 in the assay with KIN001-266 + Dasatinib (first compound 8 µM); 0.516 with KIN001-266 + Navitoclax (first compound 0.08 µM). Besides, the relative viability with KIN001-266 + Navitoclax (first compound 0.253 µM) was determined as 0.491; with KIN001-266 + Navitoclax (first compound 0.8 µM), 0.401; in the assay with KIN001-266 + Navitoclax (first compound 2.53 µM), 0.388; with KIN001-266 + Navitoclax (first compound 8 µM), 0.429; with KIN001-266 + Vorinostat (first compound 0.08 µM), 0.887; with KIN001-266 + Vorinostat (first compound 0.253 µM), 0.738. Besides, the relative viability was determined as 0.723 with KIN001-266 + Vorinostat (first compound 2.53 µM) and 0.555 in the assay with KIN001-266 + Vorinostat (first compound 8 µM).
Consider NCI-H1395, for which the relative viability was determined as 0.413 in the assay with KIN001-266 + Dasatinib (first compound 0.08 µM); 0.388 with KIN001-266 + Dasatinib (first compound 0.253 µM); 0.43 with KIN001-266 + Dasatinib (first compound 0.8 µM); 0.418 with KIN001-266 + Dasatinib (first compound 2.53 µM); 0.429 with KIN001-266 + Dasatinib (first compound 8 µM); 1.15 with KIN001-266 + Navitoclax (first compound 0.08 µM). Besides, the relative viability with KIN001-266 + Navitoclax (first compound 0.253 µM) was determined as 1.26; with KIN001-266 + Navitoclax (first compound 0.8 µM) it was 1.25; with KIN001-266 + Navitoclax (first compound 2.53 µM) it was 1.1; in the assay with KIN001-266 + Navitoclax (first compound 8 µM), 0.938; with KIN001-266 + Vorinostat (first compound 0.08 µM) it was 0.679; in the assay with KIN001-266 + Vorinostat (first compound 0.253 µM), 0.768. The figures for the relative viability with KIN001-266 + Vorinostat (first compound 0.8 µM), in the assay with KIN001-266 + Vorinostat (first compound 2.53 µM) and with KIN001-266 + Vorinostat (first compound 8 µM) were 0.828, 0.654 and 0.709, respectively.
As to NCI-H1703, the relative viability is 0.987 with KIN001-266 + Navitoclax (first compound 0.08 µM); 1.08 with KIN001-266 + Navitoclax (first compound 0.253 µM); 1.13 in the assay with KIN001-266 + Navitoclax (first compound 0.8 µM); 0.875 in the assay with KIN001-266 + Navitoclax (first compound 2.53 µM); 0.632 in the assay with KIN001-266 + Navitoclax (first compound 8 µM); 0.965 with KIN001-266 + Crizotinib (first compound 0.08 µM). Moreover, the relative viability with KIN001-266 + Crizotinib (first compound 0.253 µM) is 0.675; with KIN001-266 + Crizotinib (first compound 0.8 µM), 0.63; in the assay with KIN001-266 + Crizotinib (first compound 2.53 µM) it was 0.457; in the assay with KIN001-266 + Crizotinib (first compound 8 µM), 0.371.
In the case of NCI-H650, the relative viability with KIN001-266 + Dasatinib (first compound 0.08 µM) is 0.609; with KIN001-266 + Dasatinib (first compound 0.253 µM), 0.531; in the assay with KIN001-266 + Dasatinib (first compound 0.8 µM) it was 0.455; with KIN001-266 + Dasatinib (first compound 2.53 µM), 0.451; with KIN001-266 + Dasatinib (first compound 8 µM), 0.517; with KIN001-266 + Vorinostat (first compound 0.08 µM), 0.321. The relative viability with KIN001-266 + Vorinostat (first compound 0.253 µM) stood at 0.558; with KIN001-266 + Vorinostat (first compound 0.8 µM) it was 0.505; with KIN001-266 + Vorinostat (first compound 2.53 µM) it was 0.455; with KIN001-266 + Vorinostat (first compound 8 µM) it was 0.598; with KIN001-266 + Crizotinib (first compound 0.08 µM), 0.703; in the assay with KIN001-266 + Crizotinib (first compound 0.253 µM), 0.752. Moreover, the relative viability with KIN001-266 + Crizotinib (first compound 0.8 µM) came to 0.741; in the assay with KIN001-266 + Crizotinib (first compound 2.53 µM), 0.797; with KIN001-266 + Crizotinib (first compound 8 µM), 0.71.
Consider EBC-1, for which the relative viability in the assay with KIN001-266 + Navitoclax (first compound 0.08 µM) was 0.398; in the assay with KIN001-266 + Navitoclax (first compound 0.253 µM), 0.413; with KIN001-266 + Navitoclax (first compound 0.8 µM), 0.409; with KIN001-266 + Navitoclax (first compound 2.53 µM) it was 0.359; with KIN001-266 + Navitoclax (first compound 8 µM), 0.217; with KIN001-266 + Crizotinib (first compound 0.08 µM), 0.183. Moreover, the relative viability turned out to be 0.205 in the assay with KIN001-266 + Crizotinib (first compound 0.253 µM), 0.205 with KIN001-266 + Crizotinib (first compound 0.8 µM), 0.203 with KIN001-266 + Crizotinib (first compound 2.53 µM) and 0.185 with KIN001-266 + Crizotinib (first compound 8 µM).
Turning to NCI-H661, the relative viability with KIN001-266 + Dasatinib (first compound 0.08 µM) was 0.897; with KIN001-266 + Dasatinib (first compound 0.253 µM), 1.01; with KIN001-266 + Dasatinib (first compound 0.8 µM), 0.847; with KIN001-266 + Dasatinib (first compound 2.53 µM), 0.894; with KIN001-266 + Dasatinib (first compound 8 µM) it was 0.657; in the assay with KIN001-266 + Vorinostat (first compound 0.08 µM), 0.776. Besides, the relative viability with KIN001-266 + Vorinostat (first compound 0.253 µM) was determined as 0.765; with KIN001-266 + Vorinostat (first compound 0.8 µM) it was 0.781; with KIN001-266 + Vorinostat (first compound 2.53 µM), 0.771; with KIN001-266 + Vorinostat (first compound 8 µM), 0.78; with KIN001-266 + Crizotinib (first compound 0.08 µM) it was 1.1; in the assay with KIN001-266 + Crizotinib (first compound 0.253 µM) it was 0.959. For the same cell line, the relative viability with KIN001-266 + Crizotinib (first compound 8 µM) turned out to be 0.887.
